According to paper PMC7473865, “Repertoire-scale determination of class II MHC peptide binding via yeast display improves antigen prediction” (Nature Communications, 2020):
Ends that are not written are not given here. Peptide text beside a SMILES is read from it.

Target: T1, recombinant HLA-DR401 (HLA-DRA1*01:01, HLA-DRB1*04:01) (Homo sapiens, UniProt P01903+P01911, A100K/A169T/F76Y/I96L/K127E/L162R/M171V/N62H/P40V/Q125Y/R42H/S133A/S149N/S66Y/V115G/V209L/W38E)
T1 construct: poly-histidine (C); made in house; host or cells: High Five (Hi5) insect cells, baculovirus (pAcGP67a)
Assay: biochemical
Format: binding
Settings: not given

Compared with AAERKMSVLSAWEEG, AAWHNDPACKGWEEG is 20-fold lower in IC50: 817 nM for the first, 40.7 nM for the second. The second is the more potent here.

AGEYRNDPNNLAYNG and `CC(C)C[C@H](NC(=O)[C@H](C)NC(=O)[C@H](C)N)C(=O)N[C@@H](CCCNC(=N)N)C(=O)N[C@@H](CCC(=O)O)C(=O)N[C@@H](CCC(=O)O)C(=O)N[C@@H](Cc1c[nH]cn1)C(=O)N[C@H](C(=O)N[C@@H](CS)C(=O)N[C@@H](CCCCN)C(=O)N[C@@H](CS)C(=O)N[C@@H](Cc1c[nH]c2ccccc12)C(=O)N[C@@H](CCC(=O)O)C(=O)N[C@@H](CCC(=O)O)C(=O)NCC(=O)O)[C@@H](C)O` (H-AALREEHTCKCWEEG-OH) are within 1.5-fold of each other in IC50: 26.5 nM for the first, 36.9 nM for the second.

`CC(C)C[C@H](NC(=O)[C@H](C)NC(=O)[C@H](C)N)C(=O)N[C@@H](CC(N)=O)C(=O)N[C@H](C(=O)N[C@@H](CCC(=O)O)C(=O)N[C@@H](CCCNC(=N)N)C(=O)N[C@H](C(=O)N[C@@H](CS)C(=O)N[C@@H](Cc1c[nH]cn1)C(=O)N[C@@H](CS)C(=O)N[C@@H](Cc1c[nH]c2ccccc12)C(=O)N[C@@H](CCC(=O)O)C(=O)N[C@@H](CCC(=O)O)C(=O)NCC(=O)O)[C@@H](C)O)C(C)C` (H-AALNVERTCHCWEEG-OH) and AAVADDFSCRGWEEG are within 1.5-fold of each other in IC50: 33.4 nM for the first, 47 nM for the second.

Compared with AAWHGEGSQIGWEEG, AAGVIDPTMLGWEEG is 1.7-fold higher in IC50: 17.5 nM for the first, 29.3 nM for the second.

Going from `CC(C)C[C@H](NC(=O)[C@H](C)NC(=O)[C@H](C)N)C(=O)N[C@H](C(=O)N[C@@H](CC(=O)O)C(=O)N[C@@H](CC(=O)O)C(=O)N1CCC[C@H]1C(=O)N[C@H](C(=O)N[C@@H](CS)C(=O)N[C@@H](CCCNC(=N)N)C(=O)N[C@@H](CS)C(=O)N[C@@H](Cc1c[nH]c2ccccc12)C(=O)N[C@@H](CCC(=O)O)C(=O)N[C@@H](CCC(=O)O)C(=O)NCC(=O)O)[C@@H](C)O)C(C)C` (H-AALVDDPTCRCWEEG-OH) to AAWVVEHSEVGWEEG, the IC50 falls from 29.3 nM to 19.4 nM (1.5-fold).

Compared with AAWDPDKTVYGWEEG, `CC(C)C[C@H](NC(=O)[C@H](C)NC(=O)[C@H](C)N)C(=O)N[C@@H](CO)C(=O)N[C@@H](CC(C)C)C(=O)N[C@@H](CCC(=O)O)C(=O)N[C@@H](CCCNC(=N)N)C(=O)N[C@@H](CO)C(=O)N[C@@H](CS)C(=O)N[C@@H](CCCCN)C(=O)N[C@@H](CS)C(=O)N[C@@H](Cc1c[nH]c2ccccc12)C(=O)N[C@@H](CCC(=O)O)C(=O)N[C@@H](CCC(=O)O)C(=O)NCC(=O)O` (H-AALSLERSCKCWEEG-OH) is 1.8-fold lower in IC50: 43.9 nM for the first, 24.9 nM for the second. The second is the more potent here.

First: AAWVPCGDMVSWEEG
Second: AAWESSTDLVGWEEG
The IC50 of the first is 2.2-fold higher: 26.5 nM for the first, 11.9 nM for the second. The second is the more potent here.

First: AAWERENDMLGWEEG
Second: AAWDPERTCRAWEEG
The IC50 of the first is 2.1-fold lower: 15.2 nM for the first, 31.8 nM for the second. The first is the more potent here.

AAANMDTSLPAWEEG showed an IC50 of 180 nM.

Same assay, conditions: HLA-DR401; fluorescence polarization competition; Fig3B; read-out: Measured IC50

`CC(C)C[C@H](N)C(=O)N[C@@H](Cc1ccccc1)C(=O)N[C@@H](CCC(=O)O)C(=O)N[C@@H](CCCCN)C(=O)N[C@@H](Cc1ccccc1)C(=O)N[C@@H](Cc1ccccc1)C(=O)N1CCC[C@H]1C(=O)N[C@@H](CO)C(=O)N[C@@H](CO)C(=O)N[C@@H](CO)C(=O)N[C@@H](Cc1ccc(O)cc1)C(=O)N[C@@H](CCCNC(=N)N)C(=O)N[C@@H](CCCNC(=N)N)C(=O)N1CCC[C@H]1C(=O)N[C@H](C(=O)O)C(C)C` and VSSFQDILLRMSKMQ cannot be ordered by IC50: greater than 50000 nM for the first, greater than 50000 nM for the second.

With `CSCC[C@H](NC(=O)[C@H](CO)NC(=O)[C@H](Cc1ccccc1)NC(=O)[C@H](CC(N)=O)NC(=O)[C@H](C)NC(=O)[C@@H](NC(=O)[C@H](Cc1ccccc1)NC(=O)CNC(=O)[C@H](Cc1ccc(O)cc1)NC(=O)[C@H](CCCNC(=N)N)NC(=O)[C@H](Cc1ccc(O)cc1)NC(=O)[C@H](Cc1ccccc1)NC(=O)[C@H](Cc1ccccc1)NC(=O)[C@@H](N)CO)C(C)C)C(=O)N[C@@H](CCC(=O)O)C(=O)O` the IC50 was greater than 50000 nM.

Same assay, conditions: SuppFig6C; fluorescence polarization competition, HLA-DR401; read-out: Measured IC50

AAGFKGEQGPKGYPG and AAEFRNEDGPLGEPG are within 1.5-fold of each other in IC50: 115 nM for the first, 79.9 nM for the second.

AGGFKGEQGPKGYNG was tested, and the IC50 was 134 nM.

Same assay, conditions: estimated from two-point fluorescence polarization competition assay binding plots, HLA-DR401, N = 3 technical replicates per condition; read-out: IC50 (estimated)

AASFLSDSVMGWEEG and AAWVRVVPMRAWEEG cannot be ordered by IC50: less than 10 nM for the first, less than 10 nM for the second.

First: AARYATSKSKGWEEG
Second: AAFLGEWSLLSWEEG
The IC50 of the first is higher: 9520 nM for the first, less than 10 nM for the second.

Going from `CC(C)C[C@H](NC(=O)CNC(=O)[C@H](CCCNC(=N)N)NC(=O)[C@H](CCC(=O)O)NC(=O)[C@H](CC(C)C)NC(=O)[C@@H](NC(=O)[C@H](Cc1c[nH]c2ccccc12)NC(=O)[C@H](C)NC(=O)[C@H](C)N)C(C)C)C(=O)N[C@@H](CS)C(=O)N[C@@H](CS)C(=O)N[C@@H](Cc1c[nH]c2ccccc12)C(=O)N[C@@H](CCC(=O)O)C(=O)N[C@@H](CCC(=O)O)C(=O)NCC(=O)O` (H-AAWVLERGLCCWEEG-OH) to AALGLDLRAYVWEEG, the IC50 rises from 34 nM to 7000 nM (210-fold).

Same assay, conditions: read-out: Measured IC50

`CC(C)C[C@H](N)C(=O)N[C@@H](Cc1ccccc1)C(=O)N[C@@H](CCC(=O)O)C(=O)N[C@@H](CCCCN)C(=O)N[C@@H](Cc1ccccc1)C(=O)N[C@@H](Cc1ccccc1)C(=O)N1CCC[C@H]1C(=O)N[C@@H](CO)C(=O)N[C@@H](CO)C(=O)N[C@@H](CO)C(=O)N[C@@H](Cc1ccc(O)cc1)C(=O)N[C@@H](CCCNC(=N)N)C(=O)N[C@@H](CCCNC(=N)N)C(=O)N1CCC[C@H]1C(=O)N[C@H](C(=O)O)C(C)C` and VSSFQDILLRMSKMQ cannot be ordered by IC50: greater than 50000 nM for the first, greater than 50000 nM for the second.

Molecule `CSCC[C@H](NC(=O)[C@H](CO)NC(=O)[C@H](Cc1ccccc1)NC(=O)[C@H](CC(N)=O)NC(=O)[C@H](C)NC(=O)[C@@H](NC(=O)[C@H](Cc1ccccc1)NC(=O)CNC(=O)[C@H](Cc1ccc(O)cc1)NC(=O)[C@H](CCCNC(=N)N)NC(=O)[C@H](Cc1ccc(O)cc1)NC(=O)[C@H](Cc1ccccc1)NC(=O)[C@H](Cc1ccccc1)NC(=O)[C@@H](N)CO)C(C)C)C(=O)N[C@@H](CCC(=O)O)C(=O)O` has an IC50 greater than 50000 nM.
